Square brackets hold non-standard residues; d marks the D form. Peptide text beside a SMILES is read from it. * marks the point of attachment. Bz = O=C(c1ccccc1)*
How the values were obtained:
human neutrophils [1] = test: Cytotoxic test: lactate dehydrogenase (LDH) release from human neutrophils; format: cell-based
Protocol: FIGS. 1(a)-1(b) show the influences of HCH6-1 on releasing lactate dehydrogenase (LDH) from human neutrophils under the following experimental conditions. The suspension of neutrophils was reacted with different concentrations of candidate compounds for 15 min, or fixed concentrations of candidate compounds for various times. Also, 0.1% Triton X-100 was added to react for 30 min as a release amount of total lactate dehydrogenase (Total LDH), wherein the supernatant was subjected to centrifugation for 8 min, at 200 g and at 4° C., and then a lactate dehydrogenase reagent was added and kept in the dark and at room temperature for 30 min, and an absorbance at 492 nm was monitored. Results are measured based on Total LDH as 100%.

[2] = test system: MAPKs (ERK, p38 and JNK) and Akt; test: Western blot: phosphorylation of MAPKs (ERK, p38, JNK) and Akt in fMLF-stimulated neutrophils; format: cell-based, human; details: HCH6-1 10 μM pre-processed 5 min; fMLF 3 nM, 30 sec
Text: Mitogen-activated protein kinases (MAPKs) and the expression of Akt phosphorylation are closely related to the regulation of cell inflammatory response. By specific binding of antibodies, each compound's influence on protein expression activated by different signals was observed. As to neutrophils, MAPKs (ERIK, p38, and JNK) and Akt signal transduction pathways are involved in the regulation of superoxide anion generation and elastase release. It is can be seen from the above-mentioned experiments that HCH6-1 is capable of competitively inhibiting superoxide anion generation and elastase release. Whether downstream MAPKs and Akt signal transduction pathways of FPR1 were involved in the regulation of superoxide anion generation and elastase release is explored below.
The experimental conditions were as follows. HCH6-1 (10 μM) was pre-processed for 5 min, followed by stimulus of fMLF (3-30 nM) for 30 sec.

human neutrophils [3] = test: cells; format: cell-based; details: for IC50: Neutrophil
Text: Tables 5 and 6 explore whether there is an anti-inflamatory effect in the dipeptide derivatives. Because ferricytochrome c cannot penetrate cell membranes, it reacts with superoxide anion extracellularly. Also, there are absorptive reactions at 550 nm, and differences among the absorptive reactions can be used to evaluate the influence on the release of superoxide anion. The elastase is released by degranulation as the neutrophil is activated. Tables 5 and 6 use the substrate, MeO-Suc-Ala-Ala-Pro-Val-p-nitroanilide, with the specificity for reacting with the elastase so as to evaluate the influence of the candidate compound on the elastase release.
Blood was taken from healthy human donors (20-32 years old) by venipuncture, following a protocol approved by the Institutional Review Board at Chang Gung Memorial Hospital. Neutrophils were isolated by a standard method of dextran sedimentation prior to centrifugation in a Ficoll Hypaque gradient and the hypotonic lysis of erythrocytes.
The evaluation of O2.^− generation was based on the SOD-inhibitable reduction of ferricytochrome c. In brief, after supplementation with 0.5 mg ml^−1 ferricytochrome c and 1 mM Ca^2+, neutrophils were equilibrated at 37° C. for 2 min and incubated with drugs […].

[4] = molecular target: T1, formyl peptide receptor 1 (FPR1) (Homo sapiens, UniProt P21462); test: Receptor test: competition with fluorescent FNLFNYK for binding to FPR1 on human neutrophils; details: membranes of human neutrophils; read-out: inhibition of FNLFNYK bound to FPR1, IC50
T1 construct: the effect of FNLFNYK combined with FPR1 on the membranes of human neutrophils; endogenous in cells; host or cells: human neutrophils
T1 sequence (P21462 1-350): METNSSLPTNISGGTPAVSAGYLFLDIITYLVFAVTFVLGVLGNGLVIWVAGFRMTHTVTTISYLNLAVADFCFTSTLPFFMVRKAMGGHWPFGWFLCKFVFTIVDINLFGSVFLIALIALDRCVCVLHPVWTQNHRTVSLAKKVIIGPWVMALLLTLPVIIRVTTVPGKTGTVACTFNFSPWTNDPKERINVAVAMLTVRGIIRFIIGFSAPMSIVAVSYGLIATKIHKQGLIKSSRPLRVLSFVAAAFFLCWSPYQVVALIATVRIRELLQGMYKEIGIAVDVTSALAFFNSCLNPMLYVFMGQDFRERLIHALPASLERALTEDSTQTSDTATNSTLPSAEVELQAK
Text: Membranes of human neutrophils contain fMLF receptor, formyl peptide receptor 1 (FPR1), with which formyl-NIe-Leu-Phe-NIe-Tyr-Lys (FNLFNYK) carrying the fluorescence property was combined with FPR1 and competed with the candidate compound for receptor binding. Therefore, by binding with the receptor, it was possible to further clarify whether the compound interacts with the receptor.

human neutrophils [5] = test: Expression of CD11b on the cell surface of activated neutrophils (flow cytometry); format: cell-based
Protocol: The suspension of neutrophils was mixed at 37° C. and pre-heated for 5 min, and then compounds with different concentrations for measurements were added. […] And the reaction termination is done by on-ice setting. The supernatant was removed after centrifugation, and make the cells suspension again in the balanced salt solution containing bovine serum albumin (BSA). Anti-CD11b with fluorescein isothiocyanate (FITC) labeling was added, and kept on ice and in the dark. Finally, a balanced salt solution was added to terminate the reaction. By means of the flow cytometer for detecting the anti-CD11b with fluorescein isothiocyanate (FITC) labeling, it is possible to further evaluate whether the candidate compounds had influence on CD11b expression on the cell membranes of activated neutrophils according to changes in fluorescence. […].

Compound: COC(=O)[C@@H](Cc1ccccc1)NC(=O)[C@H](Cc1c[nH]c2ccccc12)NC(=O)c1ccccc1 [Compound 3, N—(N-Benzoyl-L-tryptophanyl)-D-phenylalanine methyl ester] (Bz-Trp-[dF]-OMe)
- toxicity to cells (LDH release) during a long period (human neutrophils [1]; HCH6-1 30 μM, 120 min, FIG. 1(b)): no significant toxicity
- toxicity to neutrophils (LDH release) (human neutrophils [1]; different concentrations, 15 min, FIG. 1(a)): not the results of toxicity to the neutrophils
- phosphorylation for MAPKs (ERK, p38 and JNK) and Akt [2]: significantly suppressed phosphorylation
- IC50 (human neutrophils [3]; WKYMVm, mean ± SEM, n = 4 or 8, Table 5, read-out: Superoxide anion WKYMVm IC50): 4980 ± 270 nM
- IC50 (human neutrophils [3]; WKYMVm/CB, mean ± SEM, n = 3, Table 4, read-out: WKYMVm/CB O2•− generation (IC50)): 4830 ± 660 nM
- IC50 (human neutrophils [3]; human neutrophils triggered by fMLF, read-out: IC50 of inhibitory effect (superoxide anion, fMLF) restated in text): 320 ± 30 nM
- IC50 (human neutrophils [3]; human neutrophils, fMLF/CB, mean ± SEM, n = 3, Table 4, read-out: fMLF/CB O2•− generation (IC50)): 230 ± 20 nM
- IC50 (human neutrophils [3]; human neutrophils, fMLF, mean ± SEM, n = 4 or 8, Table 5, read-out: Superoxide anion fMLF IC50): 320 ± 30 nM
- IC50 (human neutrophils [3]; human neutrophils, fMLP/CB, mean ± SEM, n = 3, Table 1, read-out: Anti-inflammation O2•− generation (IC50)): 230 ± 20 nM
- selectivity for FPR1/2 and FPR1 (difference WKYMVm vs fMLF) (human neutrophils [3]; superoxide anion, WKYMVm vs fMLF): 15 fold
- melting point: 174 to 176 °C
- IC50 [4]: 2020 ± 340 nM
- IC50 (human neutrophils [5]; Homo sapiens, Neutrophil, stimulus of fMLF (30 nM)/CB, read-out: inhibition of CD11b expression on cell membranes, IC50): 260 ± 50 nM
- inhibition of CD11b expression on cell membranes (human neutrophils [5]; stimulus of IL-8 (100 nM), FIG. 2(n)): no inhibitory effects
- inhibition of CD11b expression on cell membranes (human neutrophils [5]; stimulus of MMK1, FIG. 2(h)): no inhibitory effects

— patent US9593144B2, “FPR1 antagonist derivatives and use thereof” (CHANG GUNG UNIVERSITY, priority 2014, dated 2017)
